Consider two molecules from patent US11000525B2, “1-[2-(aminomethyl)benzyl]-2-thioxo-1,2,3,5-tetrahydro-4H-pyrrolo[3,2-d]pyrimidin-4-ones as inhibitors of myeloperoxidase” (AstraZeneca AB, priority 2014, dated 2021).

The test system of assay [1] is MPO purified from the human cell line HL60. Description: MPO inhibition screen (Test A), ascorbate loss at 260 nm. In kind it is biochemical. The note with it: selectivity for MPO over TPO. The method, then:
Methods for the determination of MPO inhibitory activity are disclosed in WO 02/090575. The pharmacological activity of compounds disclosed herein was tested in the following screen (Test A) in which the compounds were tested in the presence of ascorbate, which reacts with MPO-derived hypochlorous acid (HOCl) to form dehydro-ascorbate. The loss of ascorbate is followed by measuring absorbance at 260 nm.
Assay buffer: 100 μM diethyl triamine pentaacetic acid (DTPA) in buffer consisting of 10 mM Na2HPO4/NaH2PO4, 3 mM KCl in 140 mM NaCl, pH 7.4.
Enzyme solution: MPO purified from the human cell line HL60, 1.38 nM (final concentration 0.7 nM) and L-ascorbate, 100 μM (final concentration 50 μM) in Assay buffer
Absorbance was measured at 260 nm to obtain a compound blank value. After an additional 10 min, 40 μL of the substrate solution was added and the absorbance at 260 nm was recorded between 4 and 40 min to obtain kinetic readings of enzyme activity.

Assay [2] in a line: Plasma urate levels in healthy volunteers (clinical trials). In kind it is in vivo, human. As to conditions: daily dose for 10 days, NCT00914303, FIG. 2. The method, then:
Subjects received placebo or the indicated daily dose for 10 days, and the difference in plasma urate levels versus baseline was calculated. Each symbol represents one subject.

The structures appear in SMILES notation. Entries after “also recorded” stand apart in the source; their conditions may differ.

Consider `O=c1[nH]c(=S)n(Cc2ccccc2CNC2CCC2)c2cc[nH]c12` [Example 10, 1-{2-[(Cyclobutylamino)methyl]benzyl}-2-thioxo-1,2,3,5-tetrahydro-4H-pyrrolo[3,2-d]pyrimidin-4-one], for which the “IC50 (TPO)/IC50 (MPO)” value in assay [1] was 1100.

With `CC(C)OCCn1c(=S)[nH]c(=O)c2[nH]ccc21` [AZD3241], in assay [2], the “Reduction of plasma urate (uric acid) levels versus baseline” value is on record as “dose-dependent reduction of uric acid; also recorded: dose-dependently reduced urate levels”.
